Several values for one entry are separate records, joined by “and”; a condition that tells them apart may be missing. Equal entries are not always repeated.
Assay: amide rotamer ratio (K value) in octanol and water phase by 19F NMR integration
Type: physicochemical
Conditions: octanol phase, experimental
Text: In the closed equilibrium system shown in Figure 2A, the ratio of the p‐values equates to the ratio of the K‐values ((Eq. 7), Figure 2C), so that the difference in logp values equals the log of the K‐value ratio (Eq. 8). In other words: the lipophilicity difference between two conformers is directly related to the change between their equilibrium concentration ratios in water and octanol. The K‐values can be obtained through integration measurement (Eq. 8).
The ρ and K determinations require assignment of each fluorine signal in each phase to a particular rotamer, as it was observed that the relative position of cis‐and trans‐amide rotamer resonances in the ^19F NMR spectrum in octanol was not always the same as that in water. Conformer signal assignment in the water phase is easily accomplished by a control experiment using (octanol‐saturated) D2O by standard NOESY analysis combined with peak integration (see Supporting Information). As perdeuterated octanol is very expensive, this was experimentally non‐trivial for cases when the huge octanol solvent R‐CH 2OH signal and its ^13C satellites obscure proton resonances that are required for rotamer assignment. Solvent suppression techniques are impractical, and skew the integration ratio. We therefore introduced 1,1‐dideuteriooctanol (C7H15CD2OH), which considerably facilitated rotamer assignment. It is prepared on large scale by a modified Bouveault–Blanc reduction[20] of cheap methyl octanoate with EtOD as deuterium source (see Supporting Information).
(§1) Linclau et al – supporting information 21
(§2) 4.3 Detailed experimental data for the logP determinations (roct and rwat values for each
(§3) 4.3.1 Standard NMR settings
(§4) Standard NMR parameter setting: SW, 300 ppm; centered O1P; NS 64; D1 30 sec (octanol sample), D1 60 sec (water sample). Any change from standard setting was described for each compound. Unless specified otherwise 2,2,2-trifluoroethanol (logP: +0.36) was used as the reference compound. […]
(§5) Reference - 1-Fluoropropan-2-ol
(§6) Compound Experimental ρ /ρ LogP Average Error
(§7) (octanol/water) oct wat LogP
(§8) Ratio of E:Z-rotamers, and K value:
(§9) Octanol phase Water phase
(§10) Conformation ρ /ρ LogP Average Error

Row | Compound | Kt/c oct (ratio of trans/cis rotamers) | Ratio c/t | KE/Z oct (ratio of E:Z rotamers) | Ratio Z/E (K value in parentheses)
1 | COC(=O)[C@@H]1C[C@@H](F)CN1C(C)=O [6a, N-acetyl-4R-FPro-OMe] | 5.29 | 0.19 | – | –
2 | CC(=O)N1C[C@H](F)C[C@H]1C(=O)N(C)C [6b, N-acetyl-(2S,4R)-4-fluoroproline dimethyl amide] | 8.29 | 0.12 | – | –
3 | COC(=O)[C@@H]1CC(F)(F)CN1C(C)=O [7a, N-Acetyl-4,4-F2Pro-OMe] | 2.09 | – | – | –
4 | CC(=O)N1CC(F)(F)C[C@H]1C(=O)N(C)C [7b, N-Acetyl-4,4-F2Pro-NMe2] | 4.76 | 0.21 | – | –
5 | CC(=O)N1CCC(F)C1 (stereo not shown) [compound 2, N-Acetyl-3-fluoropyrrolidine] | – | – | 0.75 | 1.33
6 | CC(=O)N1CCC(F)(F)C1 [compound 3, N-Acetyl-3,3-difluoropyrrolidine] | – | – | 0.72 | 1.4 and 1.39
7 | CC(=O)N1CCCC(F)C1 (stereo not shown) [compound 4, N-Acetyl-3-fluoropiperidine] | – | – | 1.43 | 0.70
8 | CC(=O)N1CCCC(F)(F)C1 [compound 5, N-Acetyl-3,3-difluoropiperidine] | – | – | 1.17 | 0.85

Same assay, conditions: water phase, experimental

Row | Compound | Kt/c wat (ratio of trans/cis rotamers) | Ratio c/t | KE/Z wat (ratio of E:Z rotamers) | Ratio Z/E (K value in parentheses)
9 | COC(=O)[C@@H]1C[C@@H](F)CN1C(C)=O [6a, N-acetyl-4R-FPro-OMe] | 6.49 | 0.15 | – | –
10 | CC(=O)N1C[C@H](F)C[C@H]1C(=O)N(C)C [6b, N-acetyl-(2S,4R)-4-fluoroproline dimethyl amide] | 4.44 | 0.23 | – | –
11 | COC(=O)[C@@H]1CC(F)(F)CN1C(C)=O [7a, N-Acetyl-4,4-F2Pro-OMe] | 3.48 | – | – | –
12 | CC(=O)N1CC(F)(F)C[C@H]1C(=O)N(C)C [7b, N-Acetyl-4,4-F2Pro-NMe2] | 3.68 | 0.27 | – | –
13 | CC(=O)N1CCC(F)C1 (stereo not shown) [compound 2, N-Acetyl-3-fluoropyrrolidine] | – | – | 0.86 | 1.16
14 | CC(=O)N1CCC(F)(F)C1 [compound 3, N-Acetyl-3,3-difluoropyrrolidine] | – | – | 0.84 | 1.2 and 1.19
15 | CC(=O)N1CCCC(F)C1 (stereo not shown) [compound 4, N-Acetyl-3-fluoropiperidine] | – | – | 0.95 | 1.05
16 | CC(=O)N1CCCC(F)(F)C1 [compound 5, N-Acetyl-3,3-difluoropiperidine] | – | – | 0.73 | 1.37

Assay: logP and conformer-specific logp determination by 19F NMR (octanol/water partitioning)
Type: physicochemical
Conditions: difference between E and Z rotamer logp
Text: The principle of the strategy for logp optimization, and of the direct logp measurement, is illustrated for amide rotamers (Figure 2) in slow exchange in solution, where each rotamer signal can be integrated directly. This constitutes a system with four coupled equilibria of conformers between (refers to p) and within (refers to K) the two phases (Figure 2A). Our lipophilicity measurement procedure[18] involves acquiring a ^19F NMR spectrum of each phase after phase separation (Figure 2B), and measuring integration relative to an added internal reference. Three peaks are observed: one corresponding to the reference, and two corresponding to each amide rotamer. A ρ‐value for a given rotamer in a given phase is defined as the integration ratio of the rotamer signal and that of the reference (Eq. 5). Through taking the ratio of the ρ‐values of a rotamer, Equation 6 can be obtained,[18] showing that its logp equals the known logP of the reference plus the log of the ratio of its ρ‐values. The overall logP of the amide is then determined by using the integration sum of its rotamer signals using the same equation.[18]
Linclau et al – supporting information 8
3 The logP determination by 19F NMR
Lipophilicities were determined using a previously published protocol:[1] to a 10 mL pear-shaped flask was added the compound (1.0 - 10 mg) for logP determination, the reference compound (1.0 - 10 mg, with known logP value, e.g., 2,2,2-trifluoroethanol, logP: +0.36), water (2 mL) and n-octanol (2 mL). The resulting biphasic mixture was stirred (at 600 rpm) for 2 h at 25 °C, and then left without stirring for 16 h at 25 °C to allow phase separation. An aliquot of 0.5 mL was taken from each phase using 1 mL syringes with long needles and added to two separate NMR tubes. A deuterated NMR solvent (0.1 mL, e.g., acetone-d6), or a capillary tube containing deuterated NMR solvent, was added to the NMR tubes to enable signal locking.
Because of the volatility of the used compounds, the NMR tubes were sealed using a blowtorch. For NMR samples with directly added deuterated solvent, the tubes were inverted 20 times for mixing. For 19F{1H} NMR experiments, NMR parameters were set as follows: D1 30 sec for the octanol sample, D1 60 sec for the water sample; and O1P centered between two diagnostic fluorine peaks. If needed, an increased number of transients (NS) and/or narrower spectral window (SW) for a good S/N ratio (typically >300) was applied.
After NMR data processing, integration ratios ρoct and ρaq (ρoct is defined as the integration ratio between the compound and the reference compound in the octanol sample; likewise for ρaq) were obtained, and used in the equation (logPX = logPref + log(ρoct/ρaq)) to obtain the logP value of the compound. The logP measurement of each compound was run in triplicate. LogP values of non-fluorinated compounds were taken from the literature.
The standard deviation (σ) was calculated using the formula: […]
Where xi are the individual estimated logP values and x̅ is the mean average.
as §1, §2, §3, §4, §5, §6, §7, §8, §9, §10

Row | Compound | Δlogp
17 | CC(=O)N1CCC(F)C1 (stereo not shown) [compound 2, N-Acetyl-3-fluoropyrrolidine] | 0.06
18 | CC(=O)N1CCC(F)(F)C1 [compound 3, N-Acetyl-3,3-difluoropyrrolidine] | 0.06
19 | CC(=O)N1CCCC(F)C1 (stereo not shown) [compound 4, N-Acetyl-3-fluoropiperidine] | -0.19
20 | CC(=O)N1CCCC(F)(F)C1 [compound 5, N-Acetyl-3,3-difluoropiperidine] | -0.21

Same assay, conditions: difference between trans and cis rotamer logp

Row | Compound | Δlogp
21 | COC(=O)[C@@H]1C[C@@H](F)CN1C(C)=O [6a, N-acetyl-4R-FPro-OMe] | 0.09
22 | CC(=O)N1C[C@H](F)C[C@H]1C(=O)N(C)C [6b, N-acetyl-(2S,4R)-4-fluoroproline dimethyl amide] | -0.27
23 | CC(=O)N1CC(F)(F)C[C@H]1C(=O)N(C)C [7b, N-Acetyl-4,4-F2Pro-NMe2] | -0.11

Same assay, conditions: n-octanol/water, octanol/water, 19F NMR, cis amide rotamer; read-out: logp (cis)-rotamer (conformer-specific, average)

Row | Compound | logP
24 | CC(=O)N1C[C@H](F)C[C@H]1C(=O)N(C)C [6b, N-acetyl-(2S,4R)-4-fluoroproline dimethyl amide] | -1.39

Same assay, conditions: n-octanol/water, octanol/water, 19F NMR, unrounded mean; read-out: logP, mean as printed in column Error (±σ)

Row | Compound | logP
25 | COC(=O)[C@@H]1C[C@@H](F)CN1C(C)=O [6a, N-acetyl-4R-FPro-OMe] | -0.605
26 | CC(=O)N1C[C@H](F)C[C@H]1C(=O)N(C)C [6b, N-acetyl-(2S,4R)-4-fluoroproline dimethyl amide] | -1.16
27 | COC(=O)[C@@H]1CC(F)(F)CN1C(C)=O [7a, N-Acetyl-4,4-F2Pro-OMe] | -0.196
28 | CC(=O)N1CC(F)(F)C[C@H]1C(=O)N(C)C [7b, N-Acetyl-4,4-F2Pro-NMe2] | -0.888
29 | CC(=O)N1CCC(F)C1 (stereo not shown) [compound 2, N-Acetyl-3-fluoropyrrolidine] | -0.568
30 | CC(=O)N1CCC(F)(F)C1 [compound 3, N-Acetyl-3,3-difluoropyrrolidine] | -0.117
31 | CC(=O)N1CCCC(F)C1 (stereo not shown) [compound 4, N-Acetyl-3-fluoropiperidine] | -0.1
32 | CC(=O)N1CCCC(F)(F)C1 [compound 5, N-Acetyl-3,3-difluoropiperidine] | 0.272

Same assay, conditions: n-octanol/water, octanol/water, 19F NMR, unrounded mean; read-out: logp E rotamer, mean as printed in column Error (±σ)

Row | Compound | logP
33 | CC(=O)N1CCC(F)C1 (stereo not shown) [compound 2, N-Acetyl-3-fluoropyrrolidine] | -0.602
34 | CC(=O)N1CCC(F)(F)C1 [compound 3, N-Acetyl-3,3-difluoropyrrolidine] | -0.153
35 | CC(=O)N1CCCC(F)C1 (stereo not shown) [compound 4, N-Acetyl-3-fluoropiperidine] | -0.015
36 | CC(=O)N1CCCC(F)(F)C1 [compound 5, N-Acetyl-3,3-difluoropiperidine] | 0.378

Same assay, conditions: n-octanol/water, octanol/water, 19F NMR, unrounded mean; read-out: logp Z rotamer, mean as printed in column Error (±σ)

Row | Compound | logP
37 | CC(=O)N1CCC(F)C1 (stereo not shown) [compound 2, N-Acetyl-3-fluoropyrrolidine] | -0.538
38 | CC(=O)N1CCC(F)(F)C1 [compound 3, N-Acetyl-3,3-difluoropyrrolidine] | -0.089
39 | CC(=O)N1CCCC(F)C1 (stereo not shown) [compound 4, N-Acetyl-3-fluoropiperidine] | -0.198
40 | CC(=O)N1CCCC(F)(F)C1 [compound 5, N-Acetyl-3,3-difluoropiperidine] | 0.174

Same assay, conditions: n-octanol/water, octanol/water, 19F NMR, unrounded mean; read-out: logp cis rotamer, mean as printed in column Error (±σ)

Row | Compound | logP
41 | COC(=O)[C@@H]1C[C@@H](F)CN1C(C)=O [6a, N-acetyl-4R-FPro-OMe] | -0.529
42 | CC(=O)N1C[C@H](F)C[C@H]1C(=O)N(C)C [6b, N-acetyl-(2S,4R)-4-fluoroproline dimethyl amide] | -1.39
43 | COC(=O)[C@@H]1CC(F)(F)CN1C(C)=O [7a, N-Acetyl-4,4-F2Pro-OMe] | -0.035
44 | CC(=O)N1CC(F)(F)C[C@H]1C(=O)N(C)C [7b, N-Acetyl-4,4-F2Pro-NMe2] | -0.978

Same assay, conditions: n-octanol/water, octanol/water, 19F NMR, unrounded mean; read-out: logp trans rotamer, mean as printed in column Error (±σ)

Row | Compound | logP
45 | COC(=O)[C@@H]1C[C@@H](F)CN1C(C)=O [6a, N-acetyl-4R-FPro-OMe] | -0.618
46 | CC(=O)N1C[C@H](F)C[C@H]1C(=O)N(C)C [6b, N-acetyl-(2S,4R)-4-fluoroproline dimethyl amide] | -1.12
47 | COC(=O)[C@@H]1CC(F)(F)CN1C(C)=O [7a, N-Acetyl-4,4-F2Pro-OMe] | -0.256
48 | CC(=O)N1CC(F)(F)C[C@H]1C(=O)N(C)C [7b, N-Acetyl-4,4-F2Pro-NMe2] | -0.866

Same assay, conditions: n-octanol/water, octanol/water, 25 °C, 19F NMR, sum of rotamer signals; read-out: logP (macroscopic lipophilicity, average)

Row | Compound | logP
49 | COC(=O)[C@@H]1C[C@@H](F)CN1C(C)=O [6a, N-acetyl-4R-FPro-OMe] | -0.6
50 | CC(=O)N1C[C@H](F)C[C@H]1C(=O)N(C)C [6b, N-acetyl-(2S,4R)-4-fluoroproline dimethyl amide] | -1.16
51 | COC(=O)[C@@H]1CC(F)(F)CN1C(C)=O [7a, N-Acetyl-4,4-F2Pro-OMe] | -0.2
52 | CC(=O)N1CC(F)(F)C[C@H]1C(=O)N(C)C [7b, N-Acetyl-4,4-F2Pro-NMe2] | -0.89
53 | CC(=O)N1CCC(F)C1 (stereo not shown) [compound 2, N-Acetyl-3-fluoropyrrolidine] | -0.57
54 | CC(=O)N1CCC(F)(F)C1 [compound 3, N-Acetyl-3,3-difluoropyrrolidine] | -0.12
55 | CC(=O)N1CCCC(F)C1 (stereo not shown) [compound 4, N-Acetyl-3-fluoropiperidine] | -0.1
56 | CC(=O)N1CCCC(F)(F)C1 [compound 5, N-Acetyl-3,3-difluoropiperidine] | 0.27

Reference: article PMC9304282, “Relating Conformational Equilibria to Conformer‐Specific Lipophilicities: New Opportunities in Drug Discovery” (Angewandte Chemie (International Ed. in English), 2021)
